According to article PMC8085340, “Inhibiting Pyridoxal Kinase of Entamoeba histolytica Is Lethal for This Pathogen” (Frontiers in Cellular and Infection Microbiology, 2021):

Biological target: T1, EhPLK (pyridoxal kinase) (Entamoeba histolytica, UniProt C4LVZ4)
T1 construct: gene EHI_126090; recombinant histidine-tagged EhPLK
T1 sequence (C4LVZ4 1-279): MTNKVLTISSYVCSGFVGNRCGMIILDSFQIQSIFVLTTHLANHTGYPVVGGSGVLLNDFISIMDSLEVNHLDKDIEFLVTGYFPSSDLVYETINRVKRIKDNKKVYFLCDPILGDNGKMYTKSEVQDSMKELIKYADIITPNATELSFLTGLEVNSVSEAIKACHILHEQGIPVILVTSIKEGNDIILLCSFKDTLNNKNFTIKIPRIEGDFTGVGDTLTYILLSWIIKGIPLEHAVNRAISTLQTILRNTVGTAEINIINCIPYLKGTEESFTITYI
Experiment: spectrophotometric PLP formation assay at […] nm with purified enzyme; partial inhibition (maximum […])
Format: biochemical

Row | IC50 [µM] | SMILES
1 | ~250 | O=S1(=O)CCCN1c1ccc(Nc2ncnc3ccsc23)cc1 [compound 1, N-[4-(1,1-dioxo-1,2-thiazolidin-2-yl)phenyl]thieno[3,2-d]pyrimidin-4-amine]
2 | ~100 | O=S1(=O)CCCN1c1ccc(Nc2ncnc3sccc23)cc1 [compound 2, N-[4-(1,1-dioxo-1,2-thiazolidin-2-yl)phenyl]thieno[2,3-d]pyrimidin-4-amine]
